Test results: patent US5827887A, “Biphenyl compounds” (Roussel Uclaf, priority 1995, dated 1998)

target: T1, human prostate 5-α-reductase (PH6) (Homo sapiens, UniProt P31213); assay: 5-α-reductase activity in vitro, HPLC of 5-α reduced metabolites of tritiated testosterone, homogenates of human prostates (PH6); format: biochemical; details: human prostate homogenate; testosterone substrate; pH 5.5; 37° C., 30 minutes; read-out: IC50 of inhibition of the 5-α-reductase activity of the human prostate enzyme (PH6)
T1 construct: Homogenates of human prostates were used, obtained by radical prostatectomies; from tissue; host or cells: human prostate (benign hyperplasia, radical prostatectomy), homogenate, 140,000 g pellet
T1 sequence (P31213 1-254): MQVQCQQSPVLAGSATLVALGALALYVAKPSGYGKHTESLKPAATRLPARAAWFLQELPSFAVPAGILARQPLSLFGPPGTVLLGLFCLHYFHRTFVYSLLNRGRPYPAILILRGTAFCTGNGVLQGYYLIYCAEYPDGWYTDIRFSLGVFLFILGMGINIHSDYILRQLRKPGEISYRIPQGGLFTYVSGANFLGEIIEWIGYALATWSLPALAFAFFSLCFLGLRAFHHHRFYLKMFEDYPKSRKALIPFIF
Method: The test for measuring the 5-α-reductase activity took place in vitro by incubating the enzyme and its substrate (testosterone) and measuring by HPLC chromatography the quantity of 5-α reduced metabolites formed (dihydro-testosterone (DHT) and 5-α-androstane-diol). Homogenates of human prostates were used, obtained by radical prostatectomies due to benign hyperplasia of the prostate (BHP): PH6.
The prostate was collected as soon as it left the operating theater suite and was packed in aluminum foil placed in a container filled with dry ice. In the laboratory, if the homogenate was not prepared immediately, the prostate could be kept at -80° C. The prostate was shredded over ice into very small pieces, which were homogenized in a medium A (20 mM of potassium phosphate, pH 6.5; 0.32M of sucrose; 1 mM of dithiotreitol (DTT); 50 uM NADPH), in a polytron, then in a Potter glass flask. After centrifuging at 140,000 g for 60 minutes at 4° C., the pellets obtained were suspended in 10 to 20 ml of medium B ([…] of potassium phosphate, pH 6.5; 20% of glycerol; 1 mM of dithiothreitol). The medium was distributed in Nunc tubes kept at -80° C. Determination of the proteins was carried out on a small amount of homogenate for its future use in the test and it was therefore assured of having at least 10 mg of proteins/ml of homogenate.
Incubation was carried out at a pH of 5.5 at the rate of 1 ml of medium/tube in the presence of citrate (normal medium and pH of the prostate).
1) Preparation of the substrate (S) which was the mixture of "unlabelled" testosterone and "tritiated" testosterone with an isotopic dilution of 100 in a trisodium citrate buffer pH 5.0
a) 40 mM of trisodium citrate buffer: 11.76 g of 3 Na-citrate, 2H2 O (Merk ref. Art 6448) were weighed and dissolved in 1 liter of distilled water (Milli-Q) and the solution was adjusted to pH of 5.0.
b) mixture of "unlabelled" testosterone and "tritiated testosterone with an isotopic dilution of 100: To obtain a solution of testosterone of 1 mM, 2.88 mg of "unlabelled" testosterone were weighed and dissolved in 10 ml of ethanol. This solution was diluted to 0.99/1000, that is 9.9 μl in 10 ml of citrate buffer (=10^-6 M solution). 9 μl of ^3 H-testosterone (NET-370) were added to 10 ml of the preceding solution (=isotopic dilution of 100). The substrate (S) was ready.
2) Preparation of enzyme+DTT+NADPH mixture
a) Potassium phosphate buffer, 40 mM, pH 6.5:
5.44 g de KH2 PO4 (Riedel de Haen ref. 30407) was weighed and dissolved in 1 liter of distilled water (Milli-Q) and the solution was adjusted to a pH of 6.5.
3.1 mg of DTT were weighed and dissolved in 1 ml of phosphate buffer.
8.33 mg of NADPH were weighed and dissolved in 1 ml of phosphate buffer.
d) enzyme+DTT+NADPH mixture (E):
For one test, 0.5 mg of proteins of prostate homogenate, 50 μl of DTT and 50 μl of NADPH were mixed together at 4° C. and the mixture was made up to 500 μl with the phosphate buffer.
3) Incubation (5α-reduction)
One tube was prepared for each test and 500 μl of (S) and 10 μl of inhibitor at the desired concentration (or ethanol for the controls) are put in each tube. The tubes containing mixture (S) and the flask containing mixture (E) were pre-incubated in a water bath for 3 to 5 minutes.
To start the reaction, 500 μl of E were transferred rapidly into each tube containing S+the inhibitor and the mixture was incubated at 37° C. with gentle stirring for 30 minutes. […]

IC50 [nM] | Structure (SMILES)
77 | CCc1cc(OCC(=O)N(C(C)C)C(C)C)ccc1-c1ccc(C(=O)O)cc1 [Example 11, 4'-(2-[bis-(isopropyl)-amino)-2-oxoethoxy]-2'-ethyl-(1,1'-biphenyl)-4-carboxylic acid]
2000 | CCc1cc(-c2ccc(C(=O)O)cc2)ccc1OCC(=O)N(C(C)C)C(C)C [Example 12, 4'-[2-[bis-(isopropyl)-amino)-2-oxoethoxy]-3'-ethyl-(1,1'-biphenyl)-4-carboxylic acid]

More lines, now with the values behind:

Structure (SMILES) | IC50 [nM]
O=C(COc1c(F)cc(-c2ccc(C(=O)O)cc2)cc1[N+](=O)[O-])NC(c1ccccc1)(c1ccccc1)c1ccccc1 [Example 6, 3'-fluoro-5'-nitro-4'-[2-oxo-2-[(tribenzyl)-amino]-ethoxy]-(1,1'-biphenyl)-4-carboxylic acid] | 36
O=C(COc1ccc(-c2ccc(C(=O)O)cc2)cc1)NC(c1ccccc1)(c1ccccc1)c1ccccc1 [Example 5, 4'-[2-oxo-2-([tribenzyl)-amino]-ethoxy]-(1,1'-biphenyl) -4-carboxylic acid] | 92
CC(C)N(C(=O)COc1c(F)cc(-c2ccc(C(=O)O)cc2)cc1[N+](=O)[O-])C(C)C [Example 4, 4'-[2-[bis-(isopropyl)-amino]-2-oxoethoxy]-3'-fluoro-5'-nitro-(1,1'-biphenyl)-4-carboxylic acid] | 9.6
